Test results taken from US20250066343A1, “NOVEL CANNAB[…] DERIVATIVE, PREPARATION METHOD THEREFOR, AND COMPOSITION COMPRISING SAME FOR IMPROVING COGNITIVE FUNCTION” (priority 2021, published 2025).

Tests used:
[1] = target: Acetylcholinesterase (AChE) (Homo sapiens, UniProt P22303); test: Acetylcholinesterase inhibitory efficacy (acetylthiocholine/DTNB absorbance assay); assay type: biochemical
Procedure: Acetylcholinesterase or butyrylcholinesterase was prepared at 50 mU/ml, 50 μl was added to a 96-well plate, mixed with the aliquoted compound, and left for 10 minutes. The substrate, acetylthiocoline 0.05 mg/mL or butyrylthiocoline 0.1 mg/ml, was prepared and 50 μl was added to a 96-well plate and left for 10 minutes. Dithionitrobenzoic acid (DTNB) was prepared at 0.3 mg/ml, then 50 μl was added to a 96-well plate and left for 10 minutes.

[2] = target: T1, Monoamine oxidase B (MAO-B) (Homo sapiens, UniProt P27338); test: Monoamine oxidase B inhibitory efficacy (kynuramine fluorescence assay); assay type: biochemical; details: compound 0-200 μM; enzyme 2 mU/mL; kynuramine substrate; N.D. = Not Detected
T1 sequence (P27338 1-520): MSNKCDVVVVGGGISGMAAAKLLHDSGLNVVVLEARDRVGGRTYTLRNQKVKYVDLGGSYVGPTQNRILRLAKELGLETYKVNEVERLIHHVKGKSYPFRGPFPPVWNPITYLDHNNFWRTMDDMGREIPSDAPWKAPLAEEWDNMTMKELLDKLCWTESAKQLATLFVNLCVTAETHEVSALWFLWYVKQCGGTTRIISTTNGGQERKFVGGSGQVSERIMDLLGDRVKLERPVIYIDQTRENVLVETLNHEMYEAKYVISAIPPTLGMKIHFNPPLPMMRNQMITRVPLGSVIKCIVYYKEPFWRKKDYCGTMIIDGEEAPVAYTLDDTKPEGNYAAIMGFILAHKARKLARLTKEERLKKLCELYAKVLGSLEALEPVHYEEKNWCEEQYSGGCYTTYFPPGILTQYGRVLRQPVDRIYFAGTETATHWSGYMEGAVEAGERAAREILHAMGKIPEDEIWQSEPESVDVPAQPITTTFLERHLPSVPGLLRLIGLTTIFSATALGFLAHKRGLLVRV
Procedure: Samples were prepared by dilution with DMSO to give concentrations of 0, 2, 5, 10, 20, 50, 100, and 200 μM of the compound, and 5 μl was dispensed into a 96-well plate. 135 μl of potassium phosphate buffer (0.1 M, 7.4 pH) was dispensed into a 96-well plate. Monoamine oxidase B was prepared at 2 mU/mL, and 50 μl was added to the 96-well plate, mixed with the dispensed compound, and left for 20 minutes. The substrate, kynuramine solution, was prepared at 100 μM, then 10 μl was added to a 96-well plate and left for 10 min. The reaction was stopped by adding 75 μl of NaOH (2N). The enzyme activity was calculated by measuring the concentration of kynuramine degraded by the enzyme using a fluorometer under 310 nm (excitation)/380 nm (emission) conditions. For the fluorescence blank experiment, potassium phosphate buffer was added instead of monoamine oxidase B to correct the compound-induced fluorescence intensity values.

Sequence of Acetylcholinesterase (AChE) (P22303 32-614, species assumed): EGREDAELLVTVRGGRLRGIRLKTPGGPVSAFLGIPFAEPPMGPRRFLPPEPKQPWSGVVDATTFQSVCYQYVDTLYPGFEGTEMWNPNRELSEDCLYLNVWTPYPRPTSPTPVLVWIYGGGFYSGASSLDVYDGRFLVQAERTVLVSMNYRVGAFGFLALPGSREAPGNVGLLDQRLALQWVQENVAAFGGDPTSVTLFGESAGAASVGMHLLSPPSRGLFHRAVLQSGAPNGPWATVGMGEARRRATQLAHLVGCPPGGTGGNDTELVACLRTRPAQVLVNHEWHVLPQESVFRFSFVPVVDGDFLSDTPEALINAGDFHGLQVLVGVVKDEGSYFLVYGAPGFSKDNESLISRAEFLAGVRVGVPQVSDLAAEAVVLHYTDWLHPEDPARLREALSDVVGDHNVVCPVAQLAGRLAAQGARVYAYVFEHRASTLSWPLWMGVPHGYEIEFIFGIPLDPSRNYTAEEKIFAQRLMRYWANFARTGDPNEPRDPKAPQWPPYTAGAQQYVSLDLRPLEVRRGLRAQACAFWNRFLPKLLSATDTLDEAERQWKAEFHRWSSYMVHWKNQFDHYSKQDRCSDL

Q: For `CCCCCc1cc2c(c(O)c1C(=O)NC(C)C)C=CC(C)(CCC=C(C)C)O2` (stereo not drawn) [Compound 4a, 5-hydroxy-N-isopropyl-2-methyl-2-(4-methylpent-3-en-1-yl)-7-pentyl-2H-chromene-6-carboxamide], which IC50 [1] is on record?
A: The IC50 was 1.3 µM.

Q: `CCCCCc1cc2c(c(O)c1C(=O)NC1CCCCCC1)C=CC(C)(CCC=C(C)C)O2` (stereo not drawn) [Compound 4ab, N-cycloheptyl-5-hydroxy-2-methyl-2(4-methylpent-3en-1-yl)-7-pentyl-2H-chromene-6-carboxamide] was tested. Which IC50 [1] did it give?
A: Its IC50 is 2.6 µM.

Q: What does the source list for `CCCCCc1cc2c(c(O)c1C(=O)N1CCc3ccccc3C1)C=CC(C)(CCC=C(C)C)O2` (stereo not drawn) [Compound 4ac, (3,4-dihydroisoquinolin-2(1H)-yl)(5-hydroxy-2-methyl-2-(4-methylpent-3-en-1-yl)-7-pentyl-2H-chromen-6-yl)methanone]?
A: IC50 [2]: 137 µM; IC50 [1]: 2.1 µM

Q: How did the IC50 [2] turn out when `CCCCCc1cc2c(c(O)c1C(=O)Nc1ccc(Br)cc1)C=CC(C)(CCC=C(C)C)O2` (stereo not drawn) [Compound 4ad, N-(4-bromophenyl)-5-hydroxy-2-methyl-2-(4-methylpent-3-en-1-yl)-7-pentyl-2H-chromene-6-carboxamide] was run?
A: Its IC50 is 12 µM.

Q: And the IC50 [1]?
A: Its IC50 is less than 0.5 µM.

Q: How did the IC50 [2] turn out when `CCCCCc1cc2c(c(O)c1C(=O)NC1CCOCC1)C=CC(C)(CCC=C(C)C)O2` (stereo not drawn) [Compound 4af, 5-hydroxy-2-methyl-2-(4-methylpent-3-en-1-yl)-7-pentyl-N-(tetrahydro-2H-pyran-4-yl)-2H-chromene-6-carboxamide] was run?
A: Its IC50 is 194 µM.

Q: And the IC50 [1]?
A: The IC50 was 46.1 µM.

Q: Which results are given for `CCCCCc1cc2c(c(O)c1C(=O)N(C)C1CCCC1)C=CC(C)(CCC=C(C)C)O2` (stereo not drawn) [Compound 4ag, N-cyclopentyl-5-hydroxy-N,2-dimethyl-2-(4-methylpent-3-en-1-yl)-7-pentyl-2H-chromene-6-carboxamide]?
A: IC50 [2]: 14.4 µM; IC50 [1]: 47.7 µM

Q: Which IC50 [1] does the source give for `CCCCCc1cc2c(c(O)c1C(=O)NC1CC1)C=CC(C)(CCC=C(C)C)O2` (stereo not drawn) [Compound 4c, N-cyclopropyl-5-hydroxy-2-methyl-2-(4-methylpent-3-en-1-yl)-7-pentyl-2H-chromene-6-carboxamide] here?
A: Its IC50 is 4.3 µM.

Q: With `CCCCCc1cc2c(c(O)c1C(=O)NCCCC)C=CC(C)(CCC=C(C)C)O2` (stereo not drawn) [Compound 4d, N-butyl-5-hydroxy-2-methyl-2-(4-methylpent-3-en-1-yl)-7-pentyl-2H-chromene-6-carboxamide] as the compound, how does the IC50 [1] read?
A: The IC50 was 1 µM.

Q: Which IC50 [1] does the source give for `CCCCCc1cc2c(c(O)c1C(=O)NC1CCCCC1)C=CC(C)(CCC=C(C)C)O2` (stereo not drawn) [Compound 4f, N-cyclohexyl-5-hydroxy-2-methyl-2-(4-methylpent-3-en-1-yl)-7-pentyl-2H-chromene-6-carboxamide] here?
A: The IC50 was 1.2 µM.

Q: What does the source list for `CCCCCCCCCNC(=O)c1c(CCCCC)cc2c(c1O)C=CC(C)(CCC=C(C)C)O2` (stereo not drawn) [Compound 4g, 5-hydroxy-2-methyl-2-(4-methylpent-3-en-1-yl)-N-nonyl-7-pentyl-2H-chromene-6-carboxamide]?
A: IC50 [2]: 111 µM; IC50 [1]: 0.5 µM

Q: For `CCCCCCCCCCCCNC(=O)c1c(CCCCC)cc2c(c1O)C=CC(C)(CCC=C(C)C)O2` (stereo not drawn) [Compound 4h, N-dodecyl-5-hydroxy-2-methyl-2-(4-methylpent-3-en-1-yl)-7-pentyl-2H-chromene-6-carboxamide], which IC50 [1] is on record?
A: The IC50 was 2.3 µM.

Q: What does the source list for `C=CCCCCCCCCCNC(=O)c1c(CCCCC)cc2c(c1O)C=CC(C)(CCC=C(C)C)O2` (stereo not drawn) [Compound 4i, 5-hydroxy-2-methyl-2-(4-methylpent-3-en-1-yl)-7-pentyl-N-(undec-10-en-1-1)-2H-chromene-6-carboxamide]?
A: IC50 [2]: 66.8 µM; IC50 [1]: 0.3 µM

Q: For `CCCCCc1cc2c(c(O)c1C(=O)NCC(CC)CCCC)C=CC(C)(CCC=C(C)C)O2` (stereo not drawn) [Compound 4j, N-(2-ethylhexyl)-5-hydroxy-2-methyl-2-(4-methylpent-3-en-1-yl)-7-pentyl-2H-chromene-6-carboxamide], which IC50 [2] is on record?
A: Its IC50 is 43.3 µM.

Q: And the IC50 [1]?
A: Its IC50 is 1.3 µM.

Q: `CCCCCc1cc2c(c(O)c1C(=O)NC/C=C(\C)CCC=C(C)C)C=CC(C)(CCC=C(C)C)O2` (stereo not drawn) [Compound 4k, (E)-N-(3,7-dimethylocta-2,6-dien-1-yl)-5-hydroxy-2-methyl-2-(4-methylpent-3-en-1-yl)-7-pentyl-2H-chromene-6-carboxamide] was tested. Which IC50 [2] did it give?
A: The IC50 was 59.3 µM.

Q: And the IC50 [1]?
A: Its IC50 is 1.3 µM.

Q: Which IC50 [2] does the source give for `CCCCCc1cc2c(c(O)c1C(=O)N1CCS(=O)(=O)CC1)C=CC(C)(CCC=C(C)C)O2` (stereo not drawn) [Compound 4l, (1,1-dioxidothiomorpholino)(5-hydroxy-2-methyl-2-(4-methylpent-3-en-1-yl)-7-pentyl-2H-chromen-6-yl)methanone] here?
A: Its IC50 is 162 µM.

Q: `C#CCNC(=O)c1c(CCCCC)cc2c(c1O)C=CC(C)(CCC=C(C)C)O2` (stereo not drawn) [Compound 4m, 5-hydroxy-2-methyl-2-(4-methylpent-3-en-1-yl)-7-pentyl-N-(prop-2-yn-1-yl)-2H-chromene-6-carboxamide] was tested. Which IC50 [2] did it give?
A: Its IC50 is 79.7 µM.

Q: What about the IC50 [1] of the same compound?
A: The IC50 was 3.6 µM.

Q: With `CCCCCc1cc2c(c(O)c1C(=O)NCCCc1ccccc1)C=CC(C)(CCC=C(C)C)O2` (stereo not drawn) [Compound 4n, 5-hydroxy-2-methyl-2-(4-methylpent-3-en-1-yl)-7-pentyl-N--(3phenylpropyl)-2H-chromene-6-carboxamide] as the compound, how does the IC50 [2] read?
A: The IC50 was 19 µM.

Q: And the IC50 [1]?
A: The IC50 was 1.2 µM.

Q: Which IC50 [2] does the source give for `CCCCCc1cc2c(c(O)c1C(=O)NC1CCN(S(C)(=O)=O)CC1)C=CC(C)(CCC=C(C)C)O2` (stereo not drawn) [Compound 4o, 5-hydroxy-2-methyl-2-(4-methylpent-3-en-1-yl)-N-(1-(methylsulfonyl)piperidin-4-yl)-7-pentyl-2H-chromene-6-carboxamide] here?
A: Its IC50 is 8.43 µM.

Q: How did the IC50 [1] turn out when `CCCCCc1cc2c(c(O)c1C(=O)NCc1cc(Br)cs1)C=CC(C)(CCC=C(C)C)O2` (stereo not drawn) [Compound 4p, N-((4-bromothiophen-2-yl)methyl)-5-hydroxy-2-methyl-2-(4-methylpent-3-en-1-yl)-7-pentyl-2H-chromene-6-carboxamide] was run?
A: Its IC50 is 0.6 µM.

Q: Which IC50 [2] does the source give for `CCCCCc1cc2c(c(O)c1C(=O)Nc1ncc(C)s1)C=CC(C)(CCC=C(C)C)O2` (stereo not drawn) [Compound 4r, 5-hydroxy-2-methyl-2-(4-methylpent-3-en-1-yl)-N-(5-methylthiazol-2-yl)-7-pentyl-2H-chromene-6-carboxamide] here?
A: The IC50 was 19.1 µM.

Q: And the IC50 [1]?
A: The IC50 was 1.1 µM.

Q: Which results are given for `CCCCCc1cc2c(c(O)c1C(=O)N[C@H]1CCCN(C(=O)OC(C)(C)C)C1)C=CC(C)(CCC=C(C)C)O2` (stereo partly drawn) [Compound 4s, tert-butyl(3S)-3-(5-hydroxy-2-methyl-2-(4-methylpent-3-en-1-yl)-7-pentyl-2H-chromene-6-carboxamido)piperidine-1-carboxylate]?
A: IC50 [2]: 15.5 µM; IC50 [1]: 52.2 µM

Q: How did the IC50 [1] turn out when `CCCCCc1cc2c(c(O)c1C(=O)Nc1ccc(C)cc1)C=CC(C)(CCC=C(C)C)O2` (stereo not drawn) [Compound 4t, 5-hydroxy-2-methyl-2-(4-methylpent-3-en-1-yl)-7-pentyl-N-(p-tolyl)-2H-chromene-6-carboxamide] was run?
A: Its IC50 is 47.7 µM.

Q: Which IC50 [1] does the source give for `CCCCCc1cc2c(c(O)c1C(=O)NC(C)CC)C=CC(C)(CCC=C(C)C)O2` (stereo not drawn) [Compound 4v, N-(sec-butyl)-5-hydroxy-2-methyl-2-(4-methylpent-3-en-1-yl)-7-pentyl-2H-chromene-6-carboxamide] here?
A: The IC50 was 6.6 µM.

Q: Which IC50 [1] does the source give for `CCCCCc1cc2c(c(O)c1C(=O)NCCS)C=CC(C)(CCC=C(C)C)O2` (stereo not drawn) [Compound 4y, 5-hydroxy-N-(2-mercaptoethyl)-2-methyl-2-(4-methylpent-3-en-1-yl)-7-pentyl-2H-chromene-6-carboxamide] here?
A: Its IC50 is 6.2 µM.
